Assay results reported in patent publication US12427187B2, “Glucose-responsive insulin conjugates” (priority 2019, dated 2025).

These molecules were tested against T1, Human macrophage mannose receptor 1 (MRC1) (Homo sapiens, UniProt P22897) (assay: MRC1 competition binding assay with Eu-mannosylated-BSA). Details: Method E: 96-well plate; IP = inflection point; read-out: MRC1 Binding IP.
T1 sequence (P22897 19-1456): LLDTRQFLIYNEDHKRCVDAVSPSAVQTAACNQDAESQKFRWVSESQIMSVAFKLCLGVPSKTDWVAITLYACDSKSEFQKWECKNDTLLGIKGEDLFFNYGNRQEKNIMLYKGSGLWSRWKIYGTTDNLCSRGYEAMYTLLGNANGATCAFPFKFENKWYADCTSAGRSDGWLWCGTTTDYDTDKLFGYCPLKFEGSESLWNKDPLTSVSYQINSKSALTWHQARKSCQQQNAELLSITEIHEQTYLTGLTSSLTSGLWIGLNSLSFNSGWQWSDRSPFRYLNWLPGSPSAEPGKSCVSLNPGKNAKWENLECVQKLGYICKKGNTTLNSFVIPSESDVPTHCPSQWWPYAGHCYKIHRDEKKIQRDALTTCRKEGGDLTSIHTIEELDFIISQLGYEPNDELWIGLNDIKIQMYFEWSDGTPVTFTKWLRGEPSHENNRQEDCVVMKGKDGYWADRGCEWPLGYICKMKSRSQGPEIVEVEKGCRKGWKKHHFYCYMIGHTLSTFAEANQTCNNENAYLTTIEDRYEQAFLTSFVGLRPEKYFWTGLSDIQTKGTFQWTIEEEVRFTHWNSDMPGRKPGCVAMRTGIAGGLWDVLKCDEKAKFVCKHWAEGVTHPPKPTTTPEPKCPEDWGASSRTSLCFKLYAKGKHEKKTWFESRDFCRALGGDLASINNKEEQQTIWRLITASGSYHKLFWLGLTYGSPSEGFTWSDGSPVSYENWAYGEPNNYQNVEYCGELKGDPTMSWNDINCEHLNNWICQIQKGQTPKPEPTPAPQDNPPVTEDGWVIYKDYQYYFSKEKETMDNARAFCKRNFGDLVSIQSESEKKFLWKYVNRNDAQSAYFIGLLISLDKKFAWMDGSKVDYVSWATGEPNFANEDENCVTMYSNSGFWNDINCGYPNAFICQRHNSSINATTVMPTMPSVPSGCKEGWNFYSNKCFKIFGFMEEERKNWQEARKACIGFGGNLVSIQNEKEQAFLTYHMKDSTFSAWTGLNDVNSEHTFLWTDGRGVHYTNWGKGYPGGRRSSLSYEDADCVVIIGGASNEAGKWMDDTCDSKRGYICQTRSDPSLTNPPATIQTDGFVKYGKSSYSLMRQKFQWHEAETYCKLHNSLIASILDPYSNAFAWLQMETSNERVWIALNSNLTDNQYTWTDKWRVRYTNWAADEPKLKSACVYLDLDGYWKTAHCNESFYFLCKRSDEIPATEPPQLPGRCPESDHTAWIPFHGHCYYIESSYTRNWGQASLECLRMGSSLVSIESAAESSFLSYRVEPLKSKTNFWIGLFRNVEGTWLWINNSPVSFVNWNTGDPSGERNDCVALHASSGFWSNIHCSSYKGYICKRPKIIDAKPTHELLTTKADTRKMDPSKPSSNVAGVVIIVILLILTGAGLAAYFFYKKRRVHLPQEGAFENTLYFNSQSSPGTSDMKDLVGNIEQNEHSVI
Description: The competition binding assay for Human macrophage mannose receptor 1 (MRC1) utilized a ligand, mannosylated-BSA labeled with the DELFIA Eu-N1-ITC reagent, as reported in the literature. Assay was performed either in a 96-well plate with 100 μL well volume (Method E) or in a 384-well plate with 25 μL well volume (Method F). […] The antibody was incubated in the plate for 1 hr at rt with shaking. The plate was washed with wash buffer 3-5 times followed by addition of MRC1 (2 ng/μl final concentration) in PBS containing 1% stabilizer BSA. The plate was incubated at rt with gentle shaking for 1 hr. The plate was washed three times with wash buffer. The IOC molecules in 12.5 μL (or 50 μL depending on plate format) buffer at appropriate concentrations were added followed by 12.5 μL (or 50 μL) Eu-mannosylated-BSA (0.1 nm final concentration) in 50 mM Tris, pH 7.5 containing 100 mM NaCl, 5 mM CaCl2, 1 mM MgCl2 and 0.2% stabilizer BSA. The plate was incubated for 2 hrs at rt with shaking followed by washing three times with wash buffer.

IC50	Structure (SMILES)
2.38 nM	CC(=O)[C@H](CCCCN)NC(=O)CCCCCNC(=O)[C@H](CCCCNC(=O)CCCCCNC(=O)CN(CC(=O)NCCO[C@H]1O[C@H](CO)[C@@H](O)[C@H](O)[C@@H]1O)CC(=O)NCCO[C@H]1O[C@H](CO[C@H]2O[C@H](CO)[C@@H](O)[C@H](O)[C@@H]2O)[C@@H](O)[C@H](O[C@H]2O[C@H](CO)[C@@H](O)[C@H](O)[C@@H]2O)[C@@H]1O)NC(=O)[C@H](CCCCNC(=O)CCCCCNC(=O)CN(CC(=O)NCCO[C@H]1O[C@H](CO)[C@@H](O)[C@H](O)[C@@H]1O)CC(=O)NCCO[C@H]1O[C@H](CO[C@H]2O[C@H](CO)[C@@H](O)[C@H](O)[C@@H]2O)[C@@H](O)[C@H](O[C@H]2O[C@H](CO)[C@@H](O)[C@H](O)[C@@H]2O)[C@@H]1O)NC(=O)CCCCCNC(=O)CN(CC(=O)NCCO[C@H]1O[C@H](CO)[C@@H](O)[C@H](O)[C@@H]1O)CC(=O)NCCO[C@H]1O[C@H](CO[C@H]2O[C@H](CO)[C@@H](O)[C@H](O)[C@@H]2O)[C@@H](O)[C@H](O[C@H]2O[C@H](CO)[C@@H](O)[C@H](O)[C@@H]2O)[C@@H]1O [IOC-39]
7.56 nM	CC(=O)[C@H](CCCCN)NC(=O)CCCCC(=O)N[C@@H](CCC(=O)NCCO[C@H]1O[C@H](CO[C@H]2O[C@H](CO)[C@@H](O)[C@H](O)[C@@H]2O)[C@@H](O)[C@H](O[C@H]2O[C@H](CO)[C@@H](O)[C@H](O)[C@@H]2O)[C@@H]1O)C(=O)N[C@@H](CCC(=O)NCCO[C@H]1O[C@H](CO[C@H]2O[C@H](CO)[C@@H](O)[C@H](O)[C@@H]2O)[C@@H](O)[C@H](O[C@H]2O[C@H](CO)[C@@H](O)[C@H](O)[C@@H]2O)[C@@H]1O)C(=O)N[C@@H](CC(C)C)C(=O)NCCO[C@H]1O[C@H](CO[C@H]2O[C@H](CO)[C@@H](O)[C@H](O)[C@@H]2O)[C@@H](O)[C@H](O[C@H]2O[C@H](CO)[C@@H](O)[C@H](O)[C@@H]2O)[C@@H]1O [IOC-4]
42.2 nM	CC(=O)[C@H](CCCCN)NC(=O)CCCCC(=O)N[C@@H](CCC(=O)N[C@@H](CCC(=O)NCCO[C@@H]1O[C@@H](C)[C@@H](O)[C@@H](O)[C@@H]1O)C(=O)NCCO[C@@H]1O[C@@H](C)[C@@H](O)[C@@H](O)[C@@H]1O)C(=O)NCCO[C@H]1O[C@H](CO[C@H]2O[C@H](CO)[C@@H](O)[C@H](O)[C@@H]2O)[C@@H](O)[C@H](O[C@H]2O[C@H](CO)[C@@H](O)[C@H](O)[C@@H]2O)[C@@H]1O [IOC-3]
3.32 nM	CC(=O)[C@H](CCCCN)NC(=O)CCCCC(=O)N[C@@H](CCC(=O)N[C@@H](CCC(=O)N[C@@H](CCC(=O)NCCCCCC(=O)NCCO[C@H]1O[C@H](CO[C@H]2O[C@H](CO)[C@@H](O)[C@H](O)[C@@H]2O)[C@@H](O)[C@H](O[C@H]2O[C@H](CO)[C@@H](O)[C@H](O)[C@@H]2O)[C@@H]1O)C(=O)NCCCCCC(=O)NCCO[C@H]1O[C@H](CO[C@H]2O[C@H](CO)[C@@H](O)[C@H](O)[C@@H]2O)[C@@H](O)[C@H](O[C@H]2O[C@H](CO)[C@@H](O)[C@H](O)[C@@H]2O)[C@@H]1O)C(=O)NCCCCCC(=O)NCCO[C@H]1O[C@H](CO[C@H]2O[C@H](CO)[C@@H](O)[C@H](O)[C@@H]2O)[C@@H](O)[C@H](O[C@H]2O[C@H](CO)[C@@H](O)[C@H](O)[C@@H]2O)[C@@H]1O)C(=O)NCCCCCC(=O)NCCO[C@H]1O[C@H](CO[C@H]2O[C@H](CO)[C@@H](O)[C@H](O)[C@@H]2O)[C@@H](O)[C@H](O[C@H]2O[C@H](CO)[C@@H](O)[C@H](O)[C@@H]2O)[C@@H]1O [IOC-24]

Same assay, conditions: Method F: 384-well plate; IP = inflection point; read-out: MRC1 Binding IP

IC50	Structure (SMILES)
86.4 nM	CC(=O)[C@H](CCCCN)NC(=O)CCCCCNC(=O)[C@H](CCCCNC(=O)[C@H](CCCCNC(=O)[C@H](CCCCNC(=O)[C@H](CCCCNC(=O)CCCCCCNC(=O)CN(CC(=O)NCCO[C@H]1O[C@H](CO)[C@@H](O)[C@H](O)[C@@H]1O)CC(=O)NCCO[C@H]1O[C@H](CO)[C@@H](O)[C@H](O)[C@@H]1O)NC(=O)CN(CC(=O)NCCO[C@H]1O[C@H](CO)[C@@H](O)[C@H](O)[C@@H]1O)CC(=O)NCCO[C@H]1O[C@H](CO)[C@@H](O)[C@H](O)[C@@H]1O)NC(=O)CN(CC(=O)NCCO[C@H]1O[C@H](O)[C@@H](O)[C@H](O)[C@@H]1O)CC(=O)NCCO[C@H]1O[C@H](CO)[C@@H](O)[C@H](O)[C@@H]1O)NC(=O)CN(CC(=O)NCCO[C@H]1O[C@H](CO)[C@@H](O)[C@H](O)[C@@H]1O)CC(=O)NCCO[C@H]1O[C@H](CO)[C@@H](O)[C@H](O)[C@@H]1O)NC(=O)CN(CC(=O)NCCO[C@H]1O[C@H](CO)[C@@H](O)[C@H](O)[C@@H]1O)CC(=O)NCCO[C@H]1O[C@H](CO)[C@@H](O)[C@H](O)[C@@H]1O [IOC-60]
9.78 nM	CC(=O)[C@H](CCCCN)NC(=O)CCCCC(=O)NCC(=O)N[C@@H](CCC(=O)N[C@@H](CCC(=O)NCCCCCC(=O)N(CCOC1O[C@H](CO)[C@@H](O)[C@H](O)[C@@H]1O)CCOC1O[C@H](CO)[C@@H](O)[C@H](O)[C@@H]1O)C(=O)NCCCCCC(=O)N(CCOC1O[C@H](CO)[C@@H](O)[C@H](O)[C@@H]1O)CCOC1O[C@H](CO)[C@@H](O)[C@H](O)[C@@H]1O)C(=O)NCCCCCC(=O)NCCO[C@H]1O[C@H](CO[C@H]2O[C@H](CO)[C@@H](O)[C@H](O)[C@@H]2O)[C@@H](O)[C@H](O[C@H]2O[C@H](CO)[C@@H](O)[C@H](O)[C@@H]2O)[C@@H]1O (stereo partly shown) [IOC-38]
8.25 nM	CC(=O)[C@H](CCCCN)NC(=O)CCCCCNC(=O)[C@H](CCCCNC(=O)CCOCCOCCNC(=O)CN(CC(=O)NCCO[C@@H]1O[C@@H](C)[C@@H](O)[C@@H](O)[C@@H]1O)CC(=O)NCCO[C@@H]1O[C@@H](C)[C@@H](O)[C@@H](O)[C@@H]1O)NC(=O)[C@H](CCCCNC(=O)CCOCCOCCNC(=O)CN(CC(=O)NCCO[C@@H]1O[C@@H](C)[C@@H](O)[C@@H](O)[C@@H]1O)CC(=O)NCCO[C@@H]1O[C@@H](C)[C@@H](O)[C@@H](O)[C@@H]1O)NC(=O)CCOCCOCCNC(=O)CN(CC(=O)NCCO[C@@H]1O[C@@H](C)[C@@H](O)[C@@H](O)[C@@H]1O)CC(=O)NCCO[C@@H]1O[C@@H](C)[C@@H](O)[C@@H](O)[C@@H]1O [IOC-43]
7.93 nM	CC(=O)[C@H](CCCCN)NC(=O)CCCCC(=O)NCC(=O)N[C@@H](CCC(=O)N[C@@H](CCC(=O)NCCCCCC(=O)N(CCOC1O[C@H](CO)[C@@H](O)[C@H](O)[C@@H]1O)CCO[C@H]1O[C@H](CO)[C@@H](O)[C@H](O)[C@@H]1O)C(=O)NCCCCCC(=O)N(CCOC1O[C@H](CO)[C@@H](O)[C@H](O)[C@@H]1O)CCOC1O[C@H](CO)[C@@H](O)[C@H](O)[C@@H]1O)C(=O)NCCCCCC(=O)NCCO[C@H]1O[C@H](CO[C@H]2O[C@H](CO)[C@@H](O)[C@H](O)[C@@H]2O)[C@@H](O)[C@H](O[C@H]2O[C@H](CO)[C@@H](O)[C@H](O)[C@@H]2O)[C@@H]1O (stereo partly shown) [IOC-34]
8.91 nM	CC(=O)[C@H](CCCCN)NC(=O)CCCCC(=O)N[C@@H](CCC(=O)N[C@@H](CCC(=O)N[C@@H](CCC(=O)N[C@@H](CCC(=O)N[C@@H](CCC(=O)NCCO[C@@H]1O[C@@H](C)[C@@H](O)[C@@H](O)[C@@H]1O)C(=O)NCCO[C@@H]1O[C@@H](C)[C@@H](O)[C@@H](O)[C@@H]1O)C(=O)NCCO[C@@H]1O[C@@H](C)[C@@H](O)[C@@H](O)[C@@H]1O)C(=O)NCCO[C@@H]1O[C@@H](C)[C@@H](O)[C@@H](O)[C@@H]1O)C(=O)NCCO[C@@H]1O[C@@H](C)[C@@H](O)[C@@H](O)[C@@H]1O)C(=O)NCCO[C@@H]1O[C@@H](C)[C@@H](O)[C@@H](O)[C@@H]1O [IOC-54]
10 nM	CC(=O)[C@H](CCCCN)NC(=O)CCCCC(=O)NCC(=O)N[C@@H](CCC(=O)N[C@@H](CCC(=O)NCCCCCC(=O)N(CCOC1O[C@H](CO)[C@@H](O)[C@H](O)[C@@H]1O)CCO[C@H]1O[C@H](CO)[C@@H](O)[C@H](O)[C@@H]1O)C(=O)NCCCCCC(=O)N(CCOC1O[C@H](CO)[C@@H](O)[C@H](O)[C@@H]1O)CCOC1O[C@H](CO)[C@@H](O)[C@H](O)[C@@H]1O)C(=O)NCCCCCC(=O)NCCO[C@H]1O[C@H](CO[C@H]2O[C@H](CO)[C@@H](O)[C@H](O)[C@@H]2O)[C@@H](O)[C@H](O[C@H]2O[C@H](CO)[C@@H](O)[C@H](O)[C@@H]2O)[C@@H]1O (stereo partly shown) [IOC-33]
